Results: ChEMBL document CHEMBL1201862, “PubChem BioAssay data set” (2004)
Active and inactive are the calls of the source.

Tests used:
Major prion protein = Major prion protein (Homo sapiens, UniProt P04156); format: functional, cell-based
[1] = molecular target: 26S proteasome non-ATPase regulatory subunit 14 (Homo sapiens, UniProt O00487); test: inhibition of proteasome subunit RPN11 – biochemical, fluorescence polarization, uHTS hits, confirmation (AID 602368); format: functional
Prothrombin = Prothrombin (Bos taurus, UniProt P00735); test: thrombin protease inhibitors – biochemical, fluorescence polarization, uHTS hits, dose response (AID 602369); format: functional
[2] = molecular target: 72 kDa type IV collagenase (Homo sapiens, UniProt P08253); test: Dose Response validation of uHTS RPN11 inhibitor hits using a MMP-2 Fluorescence assay.; format: functional
Beta Lactamase = Beta Lactamase (Pseudomonas aeruginosa, UniProt Q932Y6); test: BLA reporter interference, concentration series – BLA reporter cells, FRET fluorescence, artefact control for TLR9-MyD88 binding inhibitor project, dose response (AID 588341); format: cell-based;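 also: cell based assay in CHO-K1 cells stably expressing beta-lactamase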
CHO = CHO cell viability loss, potency – luminescence, cytotoxicity control for TLR9-MyD88 binding inhibitor project, dose response (AID 588339); format: functional, cell-based, hamster; conditions: Cricetulus griseus;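 also: CHO cells stably coexpressing TLR9 and MyD88 fusions from primary screen; compound exposure lasted 48 hours before viability readout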
[3] = molecular target: T1, Rac GTPase-activating protein 1 (Homo sapiens, UniProt Q9H0H5); test: blockers of MgcRacGAP-driven Rac1 GTP hydrolysis – biochemical, ADP Hunter fluorescence, primary and confirmatory, confirmation (AID 624330); format: functional
T1 sequence (Q9H0H5 whole entry): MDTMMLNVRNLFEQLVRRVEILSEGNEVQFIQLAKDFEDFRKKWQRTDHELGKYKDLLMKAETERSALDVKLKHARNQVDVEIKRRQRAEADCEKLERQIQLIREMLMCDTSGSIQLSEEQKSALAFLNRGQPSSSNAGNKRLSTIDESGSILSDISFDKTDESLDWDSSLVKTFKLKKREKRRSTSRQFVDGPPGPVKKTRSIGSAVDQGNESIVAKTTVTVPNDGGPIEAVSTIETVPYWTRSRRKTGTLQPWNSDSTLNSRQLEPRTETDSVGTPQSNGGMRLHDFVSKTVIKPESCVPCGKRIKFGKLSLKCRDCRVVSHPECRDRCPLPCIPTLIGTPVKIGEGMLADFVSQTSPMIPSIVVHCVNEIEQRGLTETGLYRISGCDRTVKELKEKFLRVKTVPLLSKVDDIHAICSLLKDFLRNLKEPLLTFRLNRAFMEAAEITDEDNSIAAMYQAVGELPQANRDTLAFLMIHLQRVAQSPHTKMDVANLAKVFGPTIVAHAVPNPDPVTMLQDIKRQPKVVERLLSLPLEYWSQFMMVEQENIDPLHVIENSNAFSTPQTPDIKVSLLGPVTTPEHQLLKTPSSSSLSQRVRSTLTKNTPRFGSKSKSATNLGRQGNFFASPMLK

[4] = molecular target: Apoptotic protease-activating factor 1 (Homo sapiens, UniProt O14727); format: functional
H9c2 = test: cells; format: functional, cell-based; conditions: Rattus norvegicus, H9c2, Myocardium
[5] = molecular target: T2, Sentrin-specific protease 6 (Homo sapiens, UniProt Q9GZR1); test: SAR Analysis of small molecule inhibitors of Sentrin-specific protease 6 (SENP6) using a Luminescent assay. [Related pubchem assays (depositor defined):AID2582, AID2599]; format: functional
T2 sequence (Q9GZR1 whole entry): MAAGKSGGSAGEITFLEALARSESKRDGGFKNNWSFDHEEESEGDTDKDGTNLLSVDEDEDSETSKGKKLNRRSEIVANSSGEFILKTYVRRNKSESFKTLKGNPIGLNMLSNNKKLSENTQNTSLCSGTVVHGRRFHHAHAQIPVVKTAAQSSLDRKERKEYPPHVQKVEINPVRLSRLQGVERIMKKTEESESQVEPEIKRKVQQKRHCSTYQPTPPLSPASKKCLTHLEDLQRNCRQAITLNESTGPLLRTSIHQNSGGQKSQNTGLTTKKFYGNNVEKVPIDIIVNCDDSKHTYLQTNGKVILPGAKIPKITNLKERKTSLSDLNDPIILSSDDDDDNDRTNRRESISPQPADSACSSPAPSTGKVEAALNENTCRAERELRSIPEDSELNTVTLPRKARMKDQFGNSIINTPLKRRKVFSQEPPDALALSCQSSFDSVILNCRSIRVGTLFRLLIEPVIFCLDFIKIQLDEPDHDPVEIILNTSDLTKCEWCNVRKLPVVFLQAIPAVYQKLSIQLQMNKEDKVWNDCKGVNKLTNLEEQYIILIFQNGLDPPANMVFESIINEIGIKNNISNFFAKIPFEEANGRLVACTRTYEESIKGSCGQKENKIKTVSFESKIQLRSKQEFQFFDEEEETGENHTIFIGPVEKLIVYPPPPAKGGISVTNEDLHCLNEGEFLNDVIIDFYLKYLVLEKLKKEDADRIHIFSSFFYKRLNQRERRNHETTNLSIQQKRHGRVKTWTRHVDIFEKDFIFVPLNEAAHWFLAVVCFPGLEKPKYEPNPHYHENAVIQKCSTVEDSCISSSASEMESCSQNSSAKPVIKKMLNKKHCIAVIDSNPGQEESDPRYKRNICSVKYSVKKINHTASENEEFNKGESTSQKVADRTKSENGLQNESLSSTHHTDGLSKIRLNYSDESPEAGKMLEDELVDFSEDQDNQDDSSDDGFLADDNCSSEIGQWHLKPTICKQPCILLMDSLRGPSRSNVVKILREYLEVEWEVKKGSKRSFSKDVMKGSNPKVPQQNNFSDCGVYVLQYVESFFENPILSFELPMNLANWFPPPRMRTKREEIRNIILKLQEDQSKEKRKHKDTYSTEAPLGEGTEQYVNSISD

[6] = molecular target: T3, Sentrin-specific protease 8 (Homo sapiens, UniProt Q96LD8); test: inhibition of human SENP8 cleavage activity – biochemical, luminescence, SAR follow-up (AID 504501); format: functional
T3 sequence (Q96LD8 whole entry): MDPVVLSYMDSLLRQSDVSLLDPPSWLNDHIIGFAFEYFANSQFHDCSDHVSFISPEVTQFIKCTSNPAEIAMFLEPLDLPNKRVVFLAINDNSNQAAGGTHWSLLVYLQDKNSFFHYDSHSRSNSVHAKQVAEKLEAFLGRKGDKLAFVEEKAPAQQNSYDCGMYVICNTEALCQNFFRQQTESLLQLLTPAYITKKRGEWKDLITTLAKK

Caspase-3 = molecular target: T4, Caspase-3 (Homo sapiens, UniProt P42574); test: SAR Analysis of small molecule inhibitors of Sentrin-specific proteases (SENPs) using a Caspase-3 Selectivity assay. [Related pubchem assays (depositor defined):AID2540, AID2599, AID434973, AID489001]; format: functional
T4 sequence (P42574 whole entry): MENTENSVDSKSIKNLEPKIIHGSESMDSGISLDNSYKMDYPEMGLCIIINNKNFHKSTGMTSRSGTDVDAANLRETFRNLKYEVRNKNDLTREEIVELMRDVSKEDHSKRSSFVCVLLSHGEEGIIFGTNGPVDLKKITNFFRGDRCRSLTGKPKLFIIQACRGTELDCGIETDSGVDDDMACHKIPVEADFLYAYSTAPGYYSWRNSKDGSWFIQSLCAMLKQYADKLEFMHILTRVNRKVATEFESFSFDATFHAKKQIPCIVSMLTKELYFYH

[7] = molecular target: T5, Sentrin-specific protease 7 (Homo sapiens, UniProt Q9BQF6); test: inhibition of human SENP7 cleavage activity – biochemical, luminescence, SAR follow-up (AID 504497); format: functional
T5 sequence (Q9BQF6 whole entry): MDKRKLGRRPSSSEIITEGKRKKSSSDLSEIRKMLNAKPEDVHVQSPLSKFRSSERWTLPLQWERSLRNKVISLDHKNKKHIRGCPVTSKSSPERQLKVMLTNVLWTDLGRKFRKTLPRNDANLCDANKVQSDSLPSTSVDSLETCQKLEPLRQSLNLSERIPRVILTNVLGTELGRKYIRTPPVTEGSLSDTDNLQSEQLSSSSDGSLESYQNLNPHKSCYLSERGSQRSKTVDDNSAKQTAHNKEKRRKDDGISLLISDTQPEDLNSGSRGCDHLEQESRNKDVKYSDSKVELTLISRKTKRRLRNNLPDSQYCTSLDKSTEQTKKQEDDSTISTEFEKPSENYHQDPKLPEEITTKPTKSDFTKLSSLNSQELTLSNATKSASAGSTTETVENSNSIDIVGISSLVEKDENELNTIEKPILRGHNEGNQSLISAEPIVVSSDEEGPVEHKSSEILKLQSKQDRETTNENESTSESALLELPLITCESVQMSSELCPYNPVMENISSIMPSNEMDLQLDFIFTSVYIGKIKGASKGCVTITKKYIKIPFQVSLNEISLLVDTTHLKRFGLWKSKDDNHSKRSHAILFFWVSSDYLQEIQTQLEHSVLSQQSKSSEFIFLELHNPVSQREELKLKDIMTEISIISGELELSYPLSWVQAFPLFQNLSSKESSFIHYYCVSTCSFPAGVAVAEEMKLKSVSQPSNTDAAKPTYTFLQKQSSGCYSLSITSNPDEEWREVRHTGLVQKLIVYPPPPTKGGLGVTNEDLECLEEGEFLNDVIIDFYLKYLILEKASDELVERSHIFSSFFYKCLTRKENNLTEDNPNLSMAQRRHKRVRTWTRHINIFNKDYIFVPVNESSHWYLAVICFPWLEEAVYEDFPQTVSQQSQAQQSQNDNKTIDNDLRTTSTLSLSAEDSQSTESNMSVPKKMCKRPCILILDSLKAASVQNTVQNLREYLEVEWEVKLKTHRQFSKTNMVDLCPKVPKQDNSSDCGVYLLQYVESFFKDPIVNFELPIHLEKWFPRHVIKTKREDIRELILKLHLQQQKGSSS

Candida albicans [8] = test: Candida growth inhibition combined with fluconazole – CaCi-2 strain, Alamar Blue, dry powder, set 3, dose response (AID 488907); format: functional, organism-based
Candida albicans [9] = test: resistant Candida growth with fluconazole co-treatment – CaCi-8 strain, Alamar Blue, dry powder, set 3, dose response (AID 488905); format: functional, organism-based
[10] = molecular target: DNA dC->dU-editing enzyme APOBEC-3G (Homo sapiens, UniProt Q9HC16); test: inhibition of APOBEC3G ssDNA deamination – biochemical, fluorescence, single-stranded DNA substrate, SAR follow-up (AID 602136); format: functional; conditions: read-out: IC50_Mean
[11] = molecular target: DNA dC->dU-editing enzyme APOBEC-3A (Homo sapiens, UniProt P31941); test: SAR analysis of small molecule inhibitors of APOBEC3A DNA Deaminase via a fluorescence-based single-stranded DNA deaminase assay.; format: functional; conditions: read-out: IC50_Mean
HEK293 = test: EBV LMP1 TES2 canonical NF-kB signalling blockers – cell-based, HEK293, luciferase, cherry-pick, dose response (AID 588343); format: functional; conditions: Homo sapiens
[12] = molecular target: T6, Short transient receptor potential channel 4 (Mus musculus, UniProt Q9QUQ5); test: block of DAMGO-driven TRPC4 calcium entry – cell-based, HEK293 TRPC4/mu-opioid, Fluo-4 calcium, dose response (AID 434942); format: functional;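 also: potency of inhibitors blocking the TRPC4 calcium response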
T6 sequence (Q9QUQ5 whole entry): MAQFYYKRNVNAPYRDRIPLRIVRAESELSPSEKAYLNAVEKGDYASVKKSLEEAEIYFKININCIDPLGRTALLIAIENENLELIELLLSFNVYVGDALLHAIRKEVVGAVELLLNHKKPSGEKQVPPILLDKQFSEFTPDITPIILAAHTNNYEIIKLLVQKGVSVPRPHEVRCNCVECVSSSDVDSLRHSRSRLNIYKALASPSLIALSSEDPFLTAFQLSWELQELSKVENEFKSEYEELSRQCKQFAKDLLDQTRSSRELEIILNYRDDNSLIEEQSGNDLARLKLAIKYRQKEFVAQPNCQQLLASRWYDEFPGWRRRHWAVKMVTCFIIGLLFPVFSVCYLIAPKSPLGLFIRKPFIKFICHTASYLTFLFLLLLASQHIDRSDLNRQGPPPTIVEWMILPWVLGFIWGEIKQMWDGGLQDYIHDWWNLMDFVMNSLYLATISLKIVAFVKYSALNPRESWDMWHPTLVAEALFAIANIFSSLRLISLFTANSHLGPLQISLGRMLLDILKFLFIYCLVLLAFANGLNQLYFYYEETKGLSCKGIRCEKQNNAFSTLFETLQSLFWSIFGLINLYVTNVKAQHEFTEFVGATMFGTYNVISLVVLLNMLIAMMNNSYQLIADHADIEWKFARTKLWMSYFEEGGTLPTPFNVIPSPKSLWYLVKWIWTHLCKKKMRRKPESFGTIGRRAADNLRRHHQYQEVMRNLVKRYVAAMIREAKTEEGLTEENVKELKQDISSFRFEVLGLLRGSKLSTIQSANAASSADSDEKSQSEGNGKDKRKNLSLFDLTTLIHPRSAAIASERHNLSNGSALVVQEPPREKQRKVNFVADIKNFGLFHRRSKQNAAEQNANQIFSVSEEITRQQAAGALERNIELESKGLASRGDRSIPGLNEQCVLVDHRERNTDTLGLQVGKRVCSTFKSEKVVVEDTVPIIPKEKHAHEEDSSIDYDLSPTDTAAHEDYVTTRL

[13] = molecular target: Beta-2 adrenergic receptor (Homo sapiens, UniProt P07550); test: ADRB2 activation measured by internalization – cell-based, FAP fluorogen, flow cytometry, cherry pick 1, dose response (AID 588763); format: functional

## Nc1nnc(SCc2nc(O)c3c(-c4ccccc4)csc3n2)s1
Major prion protein
  IC50: 12.2 µM (inactive)
[1]
  IC50: 28.9 µM (active)
Prothrombin
  IC50: 30.8 µM (active)
[2]
  IC50: > 100 µM (inactive)
cells
  IC50: > 138 µM (inactive)

## COc1ccccc1N1N=C(c2cccs2)CC1c1ccccc1 (stereo unspecified)
Beta Lactamase
  IC50: 3.62 µM (active)
CHO
  IC50: > 49.7 µM (inactive)

## COc1ccc(NCc2cc3cc(OC)ccc3nc2O)cc1
[3]
  IC50: 89.3 µM (active)
[4]
  IC50: 62.5 µM (active)
H9c2
  IC50: > 79 µM (inactive)

## CCc1ccc(-c2nc(/C=C/c3ccccc3)no2)cc1
[5]
  IC50: > 99 µM (inactive)
[6]
  IC50: > 99 µM (inactive)
Caspase-3
  IC50: 80 µM (active)
[7]
  IC50: 46.5 µM (active)

## N#Cc1ccc(C(=O)N2CCN(c3ccccn3)CC2)cc1
Candida albicans [8]
  AC50: 2.66 µM (active)
Candida albicans [9]
  AC50: 128 µM (active)

## Fc1ccc(OCCSc2nc3cccnc3[nH]2)cc1
[10]
  IC50: > 99 µM (inactive)
[11]
  IC50: > 99 µM (inactive)

## Brc1ccc2ncnc(NCc3ccccc3)c2c1
HEK293
  AC50: 5.03 µM (active)

## Oc1ccccc1Nc1nc(NCc2ccco2)c2ccccc2n1
[12]
  EC50: 2.11 µM (active)
[13]
  EC50: 0.492 µM (active)
